What all share (test): NCI-60 cell line screen, 48 h
The test system of assay [1] is SK-MEL-2 melanoma.
The subject of assay [2] is BT-549 breast.
In assay [3] the test system is ACHN renal.
For assay [4], the system named is M14 melanoma.
Assay [5] relates to UO-31 renal.
The test system of assay [6] is HT29 colon.
Assay [7] has as its system SK-MEL-28 melanoma.
Assay [8] has as its system CAKI-1 renal.
Assay [9] deals with NCI-H460 lung.
In assay [10] the test system is SR leukemia.

SMILES strings stand for the structures. “And” between values parts separate entries of the source, which are not always exact repeats. Identical values can stand only once.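 Step 1: Grow cells in 96-well plates. Step 2: Expose to compound for 48 hours at 5 concentrations. Step 3: Interpolate endpoints linearly; if unreached, use highest concentration. GI50 marks 50% less growth. TGI: total growth inhibition.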 Bounds are passed on as bounds.

Consider `COc1ccc(-c2cc(=O)c3c(C)ccnc3[nH]2)cc1`, for which the TGI in assay [1] is 28.1 µM; in assay [2], 67.3 µM; in assay [3], > 100 µM; in [4], > 100 µM; in assay [5] it was > 100 µM; in assay [6] it was 40.5 µM. In addition, the TGI in [7], in [8] and in assay [9] was > 100 µM throughout. Also, in [9], the GI50 was 6.19 µM.

With `O=C(O)C1CCCN1` (stereo not given), the TGI in assay [1], in assay [2], in [3], in [10], in assay [4] and in assay [5] was > 100 µM each time. The TGI in assay [6], in assay [7] and in [9] was > 100 µM in each case.

Take `OC(c1ccccc1)c1c(-c2ccccc2)[nH]c(-c2ccccc2)c1C(O)c1ccccc1` (stereo not given): the TGI in assay [1] was 5.18 µM; in [3] it was 11.9 µM; in assay [10] it was 8.25 µM; in assay [4] it was 11.8 µM; in assay [5], 5.78 µM; in assay [6], 17.5 µM. The TGI in assay [7] came to 12.1 µM; in [8], 6.75 µM; in assay [9], 14.2 µM.

For the compound `CN1CCN(c2cc(F)c(NC3=C(Cl)C(=O)c4ncccc4C3=O)c(F)c2)CC1`, the GI50 was 1.77 µM in assay [1]; 1.63 µM in assay [2]; 1.53 µM in [3]; 1.82 µM in assay [4]; 1.39 µM in assay [5]; 2 µM in assay [6]. Also, the results for the GI50 in [7], in [8] and in [9] were 1.88 µM, 1.27 µM and 2.1 µM, respectively. Also, the TGI in [1] came to 3.6 µM; in assay [2], 3.06 µM; in assay [3] it was 2.9 µM; in assay [4], 3.39 µM; in assay [5], 2.72 µM; in assay [6] it was 4.04 µM. Further, the TGI in [7] amounted to 3.36 µM; in [8], 2.52 µM; in assay [9], 8.49 µM.

Consider `O=[N+]([O-])c1ccc(Cl)c(C2CC(c3cccc4ccccc34)=Nc3ccccc3S2=O)c1` (stereo not given), for which the TGI in [1] is 37.4 µM; in assay [3], 52.9 µM; in assay [10], 93.1 µM; in assay [4] it was 59.7 µM; in assay [5] it was > 46.7 µM; in assay [6], 37.9 µM. The TGI in assay [7] was 42.8 µM; in assay [8] it was > 69.8 µM; in assay [9] it was > 76.4 µM.

Turning to `CC[O-].CC[O-].[O-]c1ccccc1C=NC12CC3CC(CC(C3)C1)C2.[O-]c1ccccc1C=NC12CC3CC(CC(C3)C1)C2.[Ti+4]`, the GI50 was 35.8 µM in assay [1]; > 100 µM in [3]; 29.2 µM in assay [10]; > 100 µM in assay [4]; 92.3 µM in assay [5]; > 100 µM in [6]. The GI50 in assay [7], in [8] and in [9] was > 100 µM each time. The TGI in assay [1], in assay [3], in assay [10], in [4], in assay [5] and in assay [6] was > 100 µM in each case. In addition, the TGI in assay [7], in [8] and in [9] was > 100 µM in each case.

For `O=c1cc(-c2cccc(Cl)c2)[nH]c2cc3c(cc12)OCO3`, the TGI in [1] is 0.582 µM and 0.72 µM; in assay [2], 17.1 µM; in assay [3], 75 µM and 90.9 µM; in assay [10], 54.7 µM; in assay [4], 75 µM and 13.9 µM; in [5], 75 µM and > 100 µM. For the same compound, the TGI was 9.41 µM and 15.4 µM in assay [6]; > 100 µM in assay [9]. For the same compound, the GI50 in [3] was 0.565 µM; in assay [4], 0.248 µM; in assay [5], 0.743 µM; in [6], 3.19 µM.

Regarding `CN(N=O)C(=O)NC(CCCCNC(=O)OCc1ccccc1)C(=O)OCc1ccccc1` (stereo not given), the TGI in assay [1] is 85.5 µM; in assay [3], 32.3 µM; in assay [10] it was 58.4 µM; in assay [4], 36.9 µM; in assay [5] it was 38.3 µM; in [6] it was > 100 µM. Further, the values for the TGI in assay [7], in assay [8] and in assay [9] were 56.1 µM, 52.8 µM and > 100 µM, respectively.

In the case of `CCCCCCCCCCCC(c1ccccc1)[N+](C)(C)C` (stereo not given), the GI50 is 1.51 µM in assay [1]; 1.31 µM in assay [2]; 4.93 µM in assay [3]; 1.37 µM in assay [4]; 10.7 µM in assay [5]; 0.296 µM in [6]. In addition, the GI50 in assay [7] was 1.49 µM; in [8], 9.98 µM; in assay [9] it was 1.28 µM. Besides, the TGI in [1] is 3.06 µM; in assay [2], 2.95 µM; in assay [3] it was 26.1 µM; in assay [4], 4.25 µM; in assay [5], 26.9 µM; in [6], 2.45 µM. Moreover, the TGI in assay [7] turned out to be 3.31 µM; in assay [8] it was 26 µM; in assay [9], 3.2 µM.

For the compound `CC(C)(Sc1cc(C(C)(C)C)c(O)c(C(C)(C)C)c1)Sc1cc(C(C)(C)C)c(O)c(C(C)(C)C)c1`, the TGI in assay [1], in assay [2], in assay [3], in [4], in assay [5] and in assay [6] was > 100 µM each time. For the same compound, the TGI in assay [7], in assay [8] and in [9] was > 100 µM in each case.

As to `Cc1cc(C)c2c(c1)CSCc1cc(C)cc(C)c1-2`, the TGI is 43.9 µM in assay [1]; > 100 µM in assay [3]; 47.4 µM in assay [10]; 91.8 µM in [4]; > 100 µM in [5]; 47.1 µM in assay [6]. Also, the TGI is > 100 µM in assay [7], 76.8 µM in [8] and 56 µM in [9].

For the origin of these results see PubChem BioAssay (NCI).
